Test results as given in article PMC3687097 (Diabetes Therapy, 2013).
“Also recorded” adds a separate entry of the source. Read-outs that look alike come from different tables or passages of the source.

Tests used:
[1] = for Patients reporting an adverse event: 22 patients
[2] = cited from earlier work

| Episodes of hypoglycemia ([1]; dapagliflozin 10 mg single oral dose, with and without voglibose) | Compound | Patients reporting an adverse event ([1]; pharmacokinetic sampling period 1: dapagliflozin with voglibose) | Patients reporting an adverse event ([1]; pharmacokinetic sampling period 2: dapagliflozin only) | Intensity of observed AEs ([1]; whole study, dapagliflozin 10 mg with or without voglibose) | Systemic / gastrointestinal absorption after oral administration [2] |
| --- | --- | --- | --- | --- | --- |
| no episodes of hypoglycemia | CCOc1ccc(Cc2cc([C@@H]3O[C@H](CO)[C@@H](O)[C@H](O)[C@H]3O)ccc2Cl)cc1 [Dapagliflozin] | one patient | three patients | mild or moderate |  |
|  | OCC(CO)N[C@H]1C[C@](O)(CO)[C@@H](O)[C@H](O)[C@H]1O [Voglibose] |  |  |  | poorly absorbed; also recorded: minimal systemic absorption |
